Experimental data taken from publication PMC4102012 (Current chemical biology, 2013).
Values joined by “and” are separate entries in the source; they are usually repeats but may differ in a detail not shown here. Equal values may be shown once. Read-outs that look alike come from different tables or passages of the source.

Assays:
[1] = biological target: T1, human porphobilinogen synthase (HsPBGS) (Homo sapiens, UniProt P13716, C162A/K59N); assay: biochemical; type: biochemical
T1 sequence (P13716 1-330 K59N/C162A): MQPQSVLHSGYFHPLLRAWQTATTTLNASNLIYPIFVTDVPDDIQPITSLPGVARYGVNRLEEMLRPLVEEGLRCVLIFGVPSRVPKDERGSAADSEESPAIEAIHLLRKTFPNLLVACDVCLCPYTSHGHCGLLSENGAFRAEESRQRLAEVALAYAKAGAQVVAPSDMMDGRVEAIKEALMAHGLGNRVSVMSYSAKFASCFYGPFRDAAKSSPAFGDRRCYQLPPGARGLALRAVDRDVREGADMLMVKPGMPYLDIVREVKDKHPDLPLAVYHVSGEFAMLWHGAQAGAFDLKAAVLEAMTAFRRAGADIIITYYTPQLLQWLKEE

[2] = biological target: T2, HsPBGS oligomeric equilibrium (hexamer/octamer) (Homo sapiens, UniProt P13716, C162A/K59N); conditions: for Effect on HsPBGS oligomeric distribution, in words: native PAGE
T2 sequence (P13716 1-330 K59N/C162A): T1 sequence (P13716 1-330 K59N/C162A)

[3] = biological target: T2, HsPBGS oligomeric equilibrium (hexamer/octamer); assay: Initial native PAGE screen of the NTP library; conditions: 2 mM compound, 40 °C 30 min
[4] = biological target: T3, PBGS from Pisum sativum (green pea) (Pisum sativum, UniProt P30124); assay: Inhibition of PBGS from Pisum sativum; type: biochemical; conditions: data not shown
T3 sequence (P30124 1-398): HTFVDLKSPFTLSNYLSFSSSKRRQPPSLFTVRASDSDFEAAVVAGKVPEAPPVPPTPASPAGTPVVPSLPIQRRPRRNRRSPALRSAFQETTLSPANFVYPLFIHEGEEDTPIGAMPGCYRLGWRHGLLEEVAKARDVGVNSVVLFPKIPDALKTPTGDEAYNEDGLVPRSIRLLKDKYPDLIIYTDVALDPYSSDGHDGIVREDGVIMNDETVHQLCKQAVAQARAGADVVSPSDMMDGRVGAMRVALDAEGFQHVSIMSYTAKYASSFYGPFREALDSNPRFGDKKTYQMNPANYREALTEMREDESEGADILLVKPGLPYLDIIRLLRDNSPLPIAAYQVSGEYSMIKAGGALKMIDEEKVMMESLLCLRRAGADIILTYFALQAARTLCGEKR

[5] = biological target: PBGS from Pseudomonas aeruginosa (Pseudomonas aeruginosa, UniProt Q59643); assay: Inhibition of PBGS from Pseudomonas aeruginosa; type: biochemical; conditions: data not shown
[6] = tested on: PBGS from Yersinia enterocolitica; assay: Inhibition of PBGS from Yersinia enterocolitica; type: biochemical; conditions: data not shown
HsPBGS = conditions: Johns Hopkins Clinical Compounds Library, native PAGE; ref [15]; cited from earlier work
[7] = reagents compatible with the HsPBGS activity assay
[8] = percentage of HsPBGS hexamer at 20 mM compound, 42 °C 1 h, no substrate
[9] = fit of the inhibition curve, 0 = hyperbolic decay to zero
[10] = preincubation 42 °C 1 h, 10 μg/mL HsPBGS, 10 mM substrate, final pH 7.8
[11] = at 3 mM compound, sum of hexameric and dimeric bands (~2:1) (footnote f)
[12] = at 2 mM compound (highest concentration, footnote d)

PBGS from Pseudomonas aeruginosa, sequence (Q59643 whole entry): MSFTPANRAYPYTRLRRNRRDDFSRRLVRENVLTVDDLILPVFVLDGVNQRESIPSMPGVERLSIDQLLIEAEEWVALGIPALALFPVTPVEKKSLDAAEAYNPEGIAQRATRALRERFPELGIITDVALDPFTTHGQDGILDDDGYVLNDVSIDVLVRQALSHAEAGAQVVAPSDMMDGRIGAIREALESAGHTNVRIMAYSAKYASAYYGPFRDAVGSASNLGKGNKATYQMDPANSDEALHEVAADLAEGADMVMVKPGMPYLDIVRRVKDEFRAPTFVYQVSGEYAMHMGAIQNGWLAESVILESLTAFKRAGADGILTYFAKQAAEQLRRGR

Row | SMILES | IC50 [1] [µM] | Mole Fraction Hexamer max (obsd) [2, 8] [%] | Result of initial screen (increase of mole fraction of hexamer) [3] | FAmin (minimum fractional activity derived from the titration) [1, 9] [%] | IC50 [1, 10] [µM] | other results
1 | O=Cc1ccc(Cl)cc1Cl [2,4-Dichlorobenzaldehyde] | 107 ± 4 | 86.2 ± 0.7 | preliminary hits |  |  | Inhibition of HsPBGS activity, in words [1]: very poor inhibitors of HsPBGS activity; Effect on HsPBGS oligomeric distribution, in words [2]: very effective at stabilizing the HsPBGS hexamer
2 | O=Cc1c(Cl)cccc1Cl [2,6-Dichlorobenzaldehyde] | 15.2 ± 1.5 |  |  |  |  | FAmin (minimum fractional activity derived from the titration) [1]: 0%; Mole Fraction Hexamer max (obsd) [2]: 100% and 100 ± 0%
3 | O=Cc1ccccc1Cl [2-Chlorobenzaldehyde] | 44.6 ± 4.9 | 91.8 ± 0.5 |  | 0 |  | 
4 | O=Cc1ccc(Cl)c(Cl)c1 [3,4-Dichlorobenzaldehyde] | 26.6 ± 2 | 30.4 ± 2.2 |  | 0 |  | 
5 | O=Cc1cccc(Br)c1 [3-Bromobenzaldehyde] | 21.5 ± 3.5 | 89.9 ± 3.4 | preliminary hits | 80.8 ± 1.2 |  | Inhibition of HsPBGS activity, in words [1]: very poor inhibitors of HsPBGS activity; Effect on HsPBGS oligomeric distribution, in words [2]: very effective at stabilizing the HsPBGS hexamer
6 | CC(=O)[O-].CC(=O)[O-].[Cd+2] [Cadmium acetate] |  |  |  | 16.7 ± 4.0 | 3.6 ± 0.7 | Mole Fraction Hexamer max (obsd) [2, 11]: 92.2 ± 0.6 ^f %
7 | [Cl][Cd][Cl] [Cadmium chloride] |  |  |  | 9.2 ± 4.5 | 6.9 ± 1.2 | Mole Fraction Hexamer max (obsd) [2, 11]: 94.9 ± 3.3 ^f %
8 | O=C1[C@H]2CC=CC[C@H]2C(=O)N1SC(Cl)(Cl)Cl [Captan, (3aR,7aS)-2-[(trichloromethyl)sulfanyl]-3a,4,7,7a-tetrahydro-1H-isoindole-1,3(2H)-dione] | 3 ± 0.3 |  |  | 0 |  | Mole Fraction Hexamer max (obsd) [2, 12]: 72.3 ± 0.3% and 72.3 ± 0.2 ^d %
9 | c1cc(OCC2CO2)cc(OCC2CO2)c1 (stereo not drawn) [Diglycidyl resorcinol ether] | 36.3 ± 2.4 | 87.4 ± 2.7 |  | 0 |  | 
10 | COC(=O)c1ccc(C=O)cc1 [Methyl-p-formyl benzoate] |  | 86.5 ± 1.4 |  | 0 | 40.3 ± 0.9 | 
11 | O=C1OC(O)C(C(Cl)Cl)=C1Cl (stereo not drawn) [Mutagen X, 3-chloro-4-(dichloromethyl)-5-hydroxy-2(5H-furanone)] |  |  |  | 0 | 1.4 ± 0.1 | Effect on HsPBGS oligomeric distribution, in words [2]: increase the ratio of hexamer to octamer; Inhibition potency relative to HsPBGS, in words [4]: comparable potency; Inhibition potency relative to HsPBGS, in words [5]: comparable potency; Inhibition potency relative to HsPBGS, in words [6]: comparable potency
12 | CNc1ccc(O)cc1.CNc1ccc(O)cc1.O=S(=O)(O)O [N-methyl-p-aminophenol sulfate] |  | 68.1 ± 0.9 |  | 0 | 13.7 ± 1.3 | 
13 | O=C1CN(/N=C/c2ccc([N+](=O)[O-])o2)C(=O)N1 [Nitrofurantoin, (E)-1-[(5-nitro-2-furyl)methylideneamino]imidazolidine-2,4-dione, reference compound] | 5.9 ± 0.4 |  |  |  |  | FAmin (minimum fractional activity derived from the titration) [1]: 0%; Result of previous library screen (HsPBGS): not identified as a hit
14 | NC(=O)NN=Cc1ccc([N+](=O)[O-])o1 [Nitrofurazone, 5-nitro-2-furaldehyde semicarbazone, reference compound] |  |  |  | 0 |  | Mole Fraction Hexamer max (obsd) [2, 12]: 48.5 ± 0.3 ^d %; Mole Fraction Hexamer max (obsd) ([2]; at 2 mM compound (highest concentration, footnote d), listed as nitrofurazone): 48.5 ± 0.3%; Result of previous library screen (HsPBGS): identified as a hexamer-stabilizing HsPBGS inhibitor
15 | CC1=C2[C@H](/C=C(\C)C(=O)O)CC[C@@H](C)[C@H]2CC1 [Valerenic acid, (2E)-3-[(4S,7R,7aR)-3,7-dimethyl-2,4,5,6,7,7a-hexahydro-1H-inden-4-yl]-2-methylacrylic acid] | 8.2 ± 1.7 | 64.1 ± 0.9 | preliminary hits | 33.2 ± 3.9 |  | 
16 | [Cd+2].[O-2] [cadmium oxide] |  |  | preliminary hits |  |  | Solubility, in words [7]: insolubility in reagents compatible with the HsPBGS activity assay
17 | N.N.[Cl][Pt][Cl] [cis-Dichlorodiamine platinum, (SP-4-2)-diamminedichloridoplatinum, reference compound] |  |  |  | 0 | 17.1 ± 1.5 | Mole Fraction Hexamer max (obsd) ([2]; at 1 mM compound (footnote e), higher concentrations precipitate HsPBGS): 53.0 ± 0.8 ^e %
18 | O=[N+]([O-])c1cccc(CCl)c1 [m-Nitrobenzyl chloride] |  | 79.8 ± 1.3 |  | 0 | 27.1 ± 2.2 | 
19 | C=Cc1ccc(C=C)cc1 [p-divinyl benzene] |  |  | preliminary hits |  |  | Solubility, in words [7]: insolubility in reagents compatible with the HsPBGS activity assay
20 | O=C/C=C/c1ccccc1 [trans-cinnamaldehyde] |  |  | preliminary hits |  |  | 
